Patent US10131652B2, “Pyrimidinyloxy benzene derivatives as herbicides” (E. I. DU PONT DE NEMOURS AND COMPANY, priority 2014, dated 2018)
Like-named read-outs stand apart in the source and are kept apart here.

Key:
Experiment in all cases: Test D pre-/postemergence plant response
Format in all cases: in vivo
corn (Zea mays) = settings: Zea mays; for Corn plant response rating (crop injury, 0 = no effect, 100 = complete kill) at 62 g/ha: 62 g ai/ha
Outline: (§1)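 Two application timings were run together: preemergence onto seeded loam–sand pots, and postemergence onto 1- to 4-leaf plants (2 to 18 cm) in peat/vermiculite medium with starter nutrients. Formulation was a non-phytotoxic solvent with surfactant. Ratings, 0 to 100, were made visually versus controls after 13 to 15 greenhouse days.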

[1] = tested on: Italian ryegrass (Lolium multiflorum); settings: Lolium multiflorum; for pest or weed control at 8 g/ha: 8 g ai/ha; for pest or weed control at 16 g/ha: 16 g ai/ha; for pest or weed control at 31 g/ha: 31 g ai/ha; for pest or weed control at 62 g/ha: 62 g ai/ha
Outline: as §1

[2] = tested on: ragweed (common ragweed, Ambrosia elatior); settings: Ambrosia artemisiifolia; for pest or weed control at 8 g/ha: 8 g ai/ha; for pest or weed control at 16 g/ha: 16 g ai/ha; for pest or weed control at 31 g/ha: 31 g ai/ha; for pest or weed control at 62 g/ha: 62 g ai/ha
Outline: as §1

[3] = tested on: blackgrass (Alopecurus myosuroides); settings: Alopecurus myosuroides; for pest or weed control at 8 g/ha: 8 g ai/ha; for pest or weed control at 16 g/ha: 16 g ai/ha; for pest or weed control at 31 g/ha: 31 g ai/ha; for pest or weed control at 62 g/ha: 62 g ai/ha
Outline: as §1

[4] = tested on: lambsquarters (Chenopodium album); settings: Chenopodium album; for pest or weed control at 8 g/ha: 8 g ai/ha; for pest or weed control at 16 g/ha: 16 g ai/ha; for pest or weed control at 31 g/ha: 31 g ai/ha; for pest or weed control at 62 g/ha: 62 g ai/ha
Outline: as §1

[5] = tested on: galium (catchweed bedstraw, Galium aparine); settings: Galium; for pest or weed control at 8 g/ha: 8 g ai/ha; for pest or weed control at 16 g/ha: 16 g ai/ha; for pest or weed control at 31 g/ha: 31 g ai/ha; for pest or weed control at 62 g/ha: 62 g ai/ha
Outline: as §1

[6] = tested on: morningglory (Ipomoea coccinea); settings: Ipomoea, post-emergence; Postemergence, 8 g ai/ha; read-out: Plant response rating (scale 0 to 100), Morningglory
Outline: as §1

[7] = post-emergence, Postemergence, scale 0 to 100 (0 no effect, 100 complete control), read-out: Ryegrass, Italian plant response rating
[8] = pre-emergence, Preemergence, scale 0 to 100 (0 no effect, 100 complete control), read-out: Plant response rating, Ryegrass, Italian
[9] = post-emergence, Postemergence, scale 0 to 100 (0 no effect, 100 complete control), read-out: Ragweed plant response rating
[10] = pre-emergence, Preemergence, scale 0 to 100 (0 no effect, 100 complete control), read-out: Plant response rating, Ragweed
[11] = post-emergence, Postemergence, scale 0 to 100 (0 no effect, 100 complete control), read-out: Blackgrass plant response rating
[12] = pre-emergence, Preemergence, scale 0 to 100 (0 no effect, 100 complete control), read-out: Plant response rating, Blackgrass
[13] = post-emergence, Postemergence, scale 0 to 100 (0 no effect, 100 complete control), read-out: Lambsquarters plant response rating
[14] = pre-emergence, Preemergence, scale 0 to 100 (0 no effect, 100 complete control), read-out: Plant response rating, Lambsquarters
[15] = post-emergence, Postemergence, scale 0 to 100 (0 no effect, 100 complete control), read-out: Galium plant response rating
[16] = pre-emergence, Preemergence, scale 0 to 100 (0 no effect, 100 complete control), read-out: Plant response rating, Galium

SMILES: FC(F)c1cc(-c2ccccc2Oc2ncc(Cl)cn2)no1 [Compound 35, 5-chloro-2-[2-[5-(difluoromethyl)-3-isoxazolyl]phenoxy]pyrimidine]
- plant injury at 8 g/ha (corn (Zea mays); post-emergence, Postemergence, 8 g ai/ha, read-out: Plant response rating (scale 0 to 100), Corn): 5%
- plant injury at 16 g/ha (corn (Zea mays); post-emergence, Postemergence, 16 g ai/ha, scale 0 to 100 (0 no effect, 100 complete control), read-out: Corn plant response rating): 5%
- plant injury at 31 g/ha (corn (Zea mays); post-emergence, Postemergence, 31 g ai/ha, scale 0 to 100 (0 no effect, 100 complete control), read-out: Corn plant response rating): 10%
- Corn plant response rating (crop injury, 0 = no effect, 100 = complete kill) at 62 g/ha (corn (Zea mays); post-emergence, Postemergence, scale 0 to 100, 0 no effect, 100 complete control): 20%
- Corn plant response rating (crop injury, 0 = no effect, 100 = complete kill) at 8 g/ha (corn (Zea mays); pre-emergence, Preemergence, 8 g ai/ha, scale 0 to 100 (0 no effect, 100 complete control)): 0%
- Corn plant response rating (crop injury, 0 = no effect, 100 = complete kill) at 16 g/ha (corn (Zea mays); pre-emergence, Preemergence, 16 g ai/ha, scale 0 to 100 (0 no effect, 100 complete control)): 0%
- Corn plant response rating (crop injury, 0 = no effect, 100 = complete kill) at 31 g/ha (corn (Zea mays); pre-emergence, Preemergence, 31 g ai/ha, scale 0 to 100 (0 no effect, 100 complete control)): 0%
- Corn plant response rating (crop injury, 0 = no effect, 100 = complete kill) at 62 g/ha (corn (Zea mays); pre-emergence, Preemergence, scale 0 to 100 (0 no effect, 100 complete control)): 15%
- pest or weed control at 8 g/ha ([1]; post-emergence, Postemergence, read-out: Plant response rating (scale 0 to 100), Ryegrass, Italian): 0%
- pest or weed control at 16 g/ha [1, 7]: 0%
- pest or weed control at 31 g/ha [1, 7]: 5%
- pest or weed control at 62 g/ha ([1]; post-emergence, Postemergence, scale 0 to 100, 0 no effect, 100 complete control, read-out: Plant response rating, Ryegrass, Italian): 20%
- pest or weed control at 8 g/ha [1, 8]: 0%
- pest or weed control at 16 g/ha [1, 8]: 0%
- pest or weed control at 31 g/ha [1, 8]: 30%
- pest or weed control at 62 g/ha [1, 8]: 80%
- pest or weed control at 8 g/ha ([2]; post-emergence, Postemergence, read-out: Plant response rating (scale 0 to 100), Ragweed): 40%
- pest or weed control at 16 g/ha [2, 9]: 45%
- pest or weed control at 31 g/ha [2, 9]: 85%
- pest or weed control at 62 g/ha ([2]; post-emergence, Postemergence, scale 0 to 100, 0 no effect, 100 complete control, read-out: Plant response rating, Ragweed): 75%
- pest or weed control at 8 g/ha [2, 10]: 55%
- pest or weed control at 16 g/ha [2, 10]: 40%
- pest or weed control at 31 g/ha [2, 10]: 75%
- pest or weed control at 62 g/ha [2, 10]: 80%
- pest or weed control at 8 g/ha ([3]; post-emergence, Postemergence, read-out: Plant response rating (scale 0 to 100), Blackgrass): 30%
- pest or weed control at 16 g/ha [3, 11]: 35%
- pest or weed control at 31 g/ha [3, 11]: 40%
- pest or weed control at 62 g/ha ([3]; post-emergence, Postemergence, scale 0 to 100, 0 no effect, 100 complete control, read-out: Plant response rating, Blackgrass): 60%
- pest or weed control at 8 g/ha [3, 12]: 70%
- pest or weed control at 16 g/ha [3, 12]: 70%
- pest or weed control at 31 g/ha [3, 12]: 90%
- pest or weed control at 62 g/ha [3, 12]: 90%
- pest or weed control at 8 g/ha ([4]; post-emergence, Postemergence, read-out: Plant response rating (scale 0 to 100), Lambsquarters): 75%
- pest or weed control at 16 g/ha [4, 13]: 80%
- pest or weed control at 31 g/ha [4, 13]: 85%
- pest or weed control at 62 g/ha ([4]; post-emergence, Postemergence, scale 0 to 100, 0 no effect, 100 complete control, read-out: Plant response rating, Lambsquarters): 95%
- pest or weed control at 8 g/ha [4, 14]: 100%
- pest or weed control at 16 g/ha [4, 14]: 100%
- pest or weed control at 31 g/ha [4, 14]: 98%
- pest or weed control at 62 g/ha [4, 14]: 100%
- pest or weed control at 8 g/ha ([5]; post-emergence, Postemergence, read-out: Plant response rating (scale 0 to 100), Galium): 80%
- pest or weed control at 16 g/ha [5, 15]: 70%
- pest or weed control at 31 g/ha [5, 15]: 75%
- pest or weed control at 62 g/ha ([5]; post-emergence, Postemergence, scale 0 to 100, 0 no effect, 100 complete control, read-out: Plant response rating, Galium): 85%
- pest or weed control at 8 g/ha [5, 16]: 85%
- pest or weed control at 16 g/ha [5, 16]: 100%
- pest or weed control at 31 g/ha [5, 16]: 100%
- pest or weed control at 62 g/ha [5, 16]: 100%
- pest or weed control at 8 g/ha [6]: 25%
